Reference: ChEMBL document CHEMBL4052752, “Synthesis and evaluation of 1-phenyl-1H-1,2,3-triazole-4-carboxylic acid derivatives as xanthine oxidase inhibitors” (Bioorg Med Chem Lett, 2017)

How the values were obtained:
[1] = molecular target: T1, Xanthine dehydrogenase/oxidase (Bos taurus, UniProt P80457); assay: Inhibition of bovine xanthine oxidase assessed as reduction in uric acid production using xanthine as substrate preincubated for 10 mins followed by substrate addition by spectrophotometric analysis
[2] = molecular target: T1, Xanthine dehydrogenase/oxidase; assay: Mixed-type inhibition of bovine xanthine oxidase by Lineweaver-Burk plot method; conditions: cattle
[3] = molecular target: T1, Xanthine dehydrogenase/oxidase; assay: Potency index, ratio of allopurinol IC50 to compound IC50 for bovine xanthine oxidase; conditions: cattle

T1 sequence (P80457 whole entry): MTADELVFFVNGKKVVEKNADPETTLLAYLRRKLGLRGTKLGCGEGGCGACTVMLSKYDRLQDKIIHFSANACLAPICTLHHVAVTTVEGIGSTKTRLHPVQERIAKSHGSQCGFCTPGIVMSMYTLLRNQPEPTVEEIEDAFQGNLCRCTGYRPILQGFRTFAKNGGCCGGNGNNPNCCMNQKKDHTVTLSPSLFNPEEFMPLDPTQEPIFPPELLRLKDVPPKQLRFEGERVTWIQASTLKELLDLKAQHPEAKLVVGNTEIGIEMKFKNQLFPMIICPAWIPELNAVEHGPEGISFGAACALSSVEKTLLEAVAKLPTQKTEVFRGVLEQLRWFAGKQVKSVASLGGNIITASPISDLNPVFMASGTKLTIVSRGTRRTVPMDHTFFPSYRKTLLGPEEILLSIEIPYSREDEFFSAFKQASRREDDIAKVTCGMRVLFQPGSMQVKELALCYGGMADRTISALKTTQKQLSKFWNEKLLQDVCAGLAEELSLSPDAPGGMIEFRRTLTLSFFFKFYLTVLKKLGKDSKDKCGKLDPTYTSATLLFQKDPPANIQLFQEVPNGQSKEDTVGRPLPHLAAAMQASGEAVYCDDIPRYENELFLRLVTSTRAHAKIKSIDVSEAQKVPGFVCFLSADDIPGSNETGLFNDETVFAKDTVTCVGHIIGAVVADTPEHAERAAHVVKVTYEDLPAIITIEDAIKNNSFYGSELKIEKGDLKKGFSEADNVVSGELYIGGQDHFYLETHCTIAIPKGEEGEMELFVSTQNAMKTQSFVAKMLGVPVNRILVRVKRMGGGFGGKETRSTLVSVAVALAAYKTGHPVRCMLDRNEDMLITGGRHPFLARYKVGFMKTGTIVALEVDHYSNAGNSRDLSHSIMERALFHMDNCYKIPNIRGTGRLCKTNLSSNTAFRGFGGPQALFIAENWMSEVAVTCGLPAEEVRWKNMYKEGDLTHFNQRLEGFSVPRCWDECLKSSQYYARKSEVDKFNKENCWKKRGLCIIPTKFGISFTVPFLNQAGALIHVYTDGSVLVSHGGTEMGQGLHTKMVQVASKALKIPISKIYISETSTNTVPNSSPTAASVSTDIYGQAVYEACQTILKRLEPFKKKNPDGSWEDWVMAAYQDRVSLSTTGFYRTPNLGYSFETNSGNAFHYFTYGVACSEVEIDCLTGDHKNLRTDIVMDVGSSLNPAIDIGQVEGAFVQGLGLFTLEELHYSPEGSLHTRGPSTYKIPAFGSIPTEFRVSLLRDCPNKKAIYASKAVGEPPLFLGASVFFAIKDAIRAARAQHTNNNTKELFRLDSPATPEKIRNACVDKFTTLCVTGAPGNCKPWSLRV

SMILES	IC50 [1]	inhibition (INH) [2]	Ratio IC50 [3]
CC(C)COc1ccc(-n2cc(C(=O)O)nn2)cc1C#N	3270 nM	–	–
CCC(C)Oc1ccc(-n2cc(C(=O)O)nn2)cc1C#N (stereo unspecified)	3960 nM	–	–
CCCCCOc1ccc(-n2cc(C(=O)O)nn2)cc1C#N	2850 nM	–	–
CCCOc1ccc(-n2cc(C(=O)O)nn2)cc1C#N	> 30000 nM	–	–
COCCOc1ccc(-n2cc(C(=O)O)nn2)cc1C#N	26100 nM	–	–
CCCCOc1ccc(-n2cc(C(=O)O)nn2)cc1C#N	5030 nM	–	–
CC(C)Oc1ccc(-n2cc(C(=O)O)nn2)cc1C#N	6240 nM	–	–
N#Cc1cccc(COc2ccc(-n3cc(C(=O)O)nn3)cc2C#N)c1	3350 nM	–	–

Compounds with a lower IC50 [1], results first:

IC50 [1]	inhibition (INH) [2]	SMILES	Ratio IC50 [3]
1080 nM	–	N#Cc1cc(-n2cc(C(=O)O)nn2)ccc1OC1CCCC1	–
850 nM	–	N#Cc1ccc(COc2ccc(-n3cc(C(=O)O)nn3)cc2C#N)cc1	–
1620 nM	–	CC(C)CCOc1ccc(-n2cc(C(=O)O)nn2)cc1C#N	–
1470 nM	–	CCCCCCCOc1ccc(-n2cc(C(=O)O)nn2)cc1C#N	–
940 nM	–	N#Cc1cc(-n2cc(C(=O)O)nn2)ccc1OCc1ccc(Cl)cc1	–
760 nM	–	COc1ccccc1COc1ccc(-n2cc(C(=O)O)nn2)cc1C#N	–
210 nM	Active	COc1cccc(COc2ccc(-n3cc(C(=O)O)nn3)cc2C#N)c1	36
2400 nM	–	N#Cc1cc(-n2cc(C(=O)O)nn2)ccc1OCc1ccccc1	–
1500 nM	–	CCCCCCOc1ccc(-n2cc(C(=O)O)nn2)cc1C#N	–
720 nM	–	COc1ccc(COc2ccc(-n3cc(C(=O)O)nn3)cc2C#N)cc1	–
630 nM	–	CCCCCCCCOc1ccc(-n2cc(C(=O)O)nn2)cc1C#N	–
